Data on one compound can be found in patent US10617680B2 (CELGENE QUANTICEL RESEARCH, INC., priority 2017, dated 2020).

One assay addresses CBP (Homo sapiens (Human), UniProt Q92793). Nature of the assay: In vitro CBP inhibition (AlphaScreen, biotinylated H4-tetraacetyl peptide). The format is binding. Put shortly:
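His-tagged CBP expressed in E. coli (50 nM final) incubated with biotinylated H4K5/8/12/16(Ac) peptide (20 nM final) in 50 mM HEPES pH 7.3, 10 mM NaCl, 0.25 mM TCEP, 0.1% BSA, 0.005% Brij-35, 0.4% DMSO, 20 min at room temp.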
On the technique in general: In Alpha technology, singlet oxygen from a donor bead excites a nearby acceptor bead.

The target of a further assay is BRD4 (Homo sapiens (Human), UniProt O60885). Nature of the assay: In vitro enzyme inhibition assay - BRD4 inhibition. It is filed as binding. To be noted: BRD4 BD1, Table 30.

Where two headings read alike, the source gives them in different places. Where only a bound is given, the exact number is not on record here.

Chain of CBP (Q92793 1081-1197): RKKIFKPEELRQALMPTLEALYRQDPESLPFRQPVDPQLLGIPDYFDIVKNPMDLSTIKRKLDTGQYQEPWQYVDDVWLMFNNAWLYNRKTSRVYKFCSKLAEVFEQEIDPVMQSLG

`CCNc1ncc(-c2cc(=O)n(C)cc2-c2cnn(-c3ccccc3C#N)c2)cn1` [Example 323, 2-(4-(4-(2-(ethylamino)pyrimidin-5-yl)-1-methyl-6-oxo-1,6-dihydropyridin-3-yl)-1H-pyrazol-1-yl)benzonitrile]: the IC50 (as a rule, the concentration that inhibits the measured activity by half) is less than 500 nM on CBP (AlphaScreen, Table 29, read-out: CBP IC50); less than 500 nM at CBP (Table 30, read-out: CRREBBP IC50); 500 to 5000 nM against BRD4.
